The nature of one data set: Solubility at pH 6.8. Format: physicochemical. The text has this: The physicochemical properties of relevance for the absorption of the compound, such as the solubility and the membrane permeability, especially at a pH close to neutral pH can be measured using the procedure as described by L. ZHOU et al. in JOURNAL OF PHARMACEUTICAL SCIENCES, VOL. 96, NO. 11, p. 3052-3071 (2007) for the solubility at pH 6.8 and the procedure as described by F. Wohnsland and B. Faller in Journal of Medicinal Chemistry Vol 44, p. 923-930 (2001) for the Parallel Artificial Membrane Permeability Assay (PAMPA) at pH 6.8.

The next data set concerns the target T1, PI3K alpha (Homo sapiens, UniProt P42336).
T1 construct: p85(iSH2) fusion partner (see partner chain) (N); His tag (C); made in house; host or cells: baculovirus; Tn5 (Trichoplusia ni) or TiniPro insect cells
The data set is described as follows: PI3K alpha kinase assay (Kinase-Glo luminescence). Format: biochemical. Summed up:
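PI3Kα construct EMV B1075 (10 nM final) was preincubated with 10 μg/mL phosphatidylinositol in 10 mM Tris-HCl pH 7.5, 3 mM MgCl2, 50 mM NaCl, 0.05% CHAPS, 1 mM DTT. Reaction started with 1 μM ATP, 60 min at room temperature; remaining ATP measured by Kinase-Glo luminescence. IC50 from 4-parameter logistic fit of 8-point titrations.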
On the technique in general: Kinase-Glo measures the ATP left after a reaction by luminescence.

The test system of data set [1] is S6 Ribosomal Protein phosphorylation Ser235/236 in TSC1 null mouse embryo fibroblast (MEF) cells. The data set is described as follows: Reverse protein array assay, S6 Ribosomal Protein phosphorylation Ser235/236 in TSC1 null MEF cells. As to conditions: 1 h, pS6 ribosomal protein Ser235/236, 60 minutes incubation, read-out: p-S6 IC50. It counts as cell-based. The gist of the method: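 TSC1−/− MEFs, seeded and held ≥20 h at 37 °C/5% CO2, were exposed to 8-step serial compound dilutions (0.02% DMSO final; DMSO vehicle control) for 60 min at 37 °C. Cells were then lysed on ice for 10 min and lysates spotted onto reverse protein array chips.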

A further data set deals with T2, PI3K delta (Homo sapiens, UniProt O00329).
T2 construct: for the full-length p110-d subunit are generated and fused by overlapping PCR; p85(iSH2) fusion partner (see partner chain) (N); His tag (C); made in house; host or cells: baculovirus; Tn5 (Trichoplusia ni) or TiniPro insect cells
The data set is described as follows: PI3K delta kinase assay (Kinase-Glo luminescence). Format: biochemical. The gist of the method:
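Recombinant p85(iSH2)-Gly linker-p110δ full-length construct (BV1060, C-terminal His tag) was used at 10 nM with 10 μg/mL phosphatidylinositol and 1 μM ATP in 10 mM Tris-HCl pH 7.5, 3 mM MgCl2, 50 mM NaCl, 0.05% CHAPS, 1 mM DTT. After 60 min at room temperature, remaining ATP was measured by Kinase-Glo luminescence.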

Data set [2] has as its system PKB Ser473 phosphorylation in Rat1-myr-HA-p110 alpha cells. The data set is described as follows: Reverse protein array assay, PKB Ser473 phosphorylation in Rat1-myr-p110 alpha cells. Format: cell-based. As to conditions: 0.5 h, pAkt Ser473, 30 minutes compound incubation, read-out: p-PKB IC50. The gist of the method:
(§1)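 Measured: PKB Ser473 phosphorylation by reverse protein array in Rat1 cells expressing myr-HA-p110 alpha, beta or delta, after 30 min compound treatment at 37 °C with 0.2% DMSO vehicle.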

Data set [3] has as its system PKB Ser473 phosphorylation in Rat1-myr-HA-p110 delta cells. The data set is described as follows: Reverse protein array assay, PKB Ser473 phosphorylation in Rat1-myr-p110 delta cells. Format: cell-based. As to conditions: read-out: p-PKB IC50. Summed up:
as §1

The target in a further data set is T3, mTOR (Homo sapiens, UniProt P42345).
T3 construct: purchased Invitrogen Corporation (Carlsbad/CA, USA) PV4753
The data set is described as follows: Biochemical assay for m-TOR by TR-FRET. As to conditions: 8 μM ATP, 400 nM GFP-4EBP1, 0.5 nM mTOR. Summed up:
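Steps: ATP (8 μM final) plus GFP-4EBP1 (400 nM final) combined with mTOR (0.5 nM final), incubated at rt; buffer HEPES pH 7.5 with 10 mM MnCl2, NaCl, EGTA, DTT. Then stopped with EDTA/Tb3+-anti-p4EBP1 pT46 Ab (0.5 nM). Plates read after 15 min.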

Data set [4] concerns PKB Ser473 phosphorylation in Rat1-myr-HA-p110 beta cells. The data set is described as follows: Reverse protein array assay, PKB Ser473 phosphorylation in Rat1-myr-p110 beta cells. Format: cell-based. Particulars: 0.5 h, pAkt Ser473, 30 minutes incubation, read-out: p-PKB IC50. The gist of the method: as §1
[5] abbreviates: pH 6.8, aqueous buffer, thermodynamic from solid, read-out: solubility.

Converted amounts (≈) assume the structure as drawn. Where two headings read alike, the source gives them in different places.

Among the data in patent US20140005163A1 (NOVARTIS AG, priority 2010, published 2014) are solubility and IC50 values, retold here.

T3 sequence (P42345 1360-2549 limits assumed): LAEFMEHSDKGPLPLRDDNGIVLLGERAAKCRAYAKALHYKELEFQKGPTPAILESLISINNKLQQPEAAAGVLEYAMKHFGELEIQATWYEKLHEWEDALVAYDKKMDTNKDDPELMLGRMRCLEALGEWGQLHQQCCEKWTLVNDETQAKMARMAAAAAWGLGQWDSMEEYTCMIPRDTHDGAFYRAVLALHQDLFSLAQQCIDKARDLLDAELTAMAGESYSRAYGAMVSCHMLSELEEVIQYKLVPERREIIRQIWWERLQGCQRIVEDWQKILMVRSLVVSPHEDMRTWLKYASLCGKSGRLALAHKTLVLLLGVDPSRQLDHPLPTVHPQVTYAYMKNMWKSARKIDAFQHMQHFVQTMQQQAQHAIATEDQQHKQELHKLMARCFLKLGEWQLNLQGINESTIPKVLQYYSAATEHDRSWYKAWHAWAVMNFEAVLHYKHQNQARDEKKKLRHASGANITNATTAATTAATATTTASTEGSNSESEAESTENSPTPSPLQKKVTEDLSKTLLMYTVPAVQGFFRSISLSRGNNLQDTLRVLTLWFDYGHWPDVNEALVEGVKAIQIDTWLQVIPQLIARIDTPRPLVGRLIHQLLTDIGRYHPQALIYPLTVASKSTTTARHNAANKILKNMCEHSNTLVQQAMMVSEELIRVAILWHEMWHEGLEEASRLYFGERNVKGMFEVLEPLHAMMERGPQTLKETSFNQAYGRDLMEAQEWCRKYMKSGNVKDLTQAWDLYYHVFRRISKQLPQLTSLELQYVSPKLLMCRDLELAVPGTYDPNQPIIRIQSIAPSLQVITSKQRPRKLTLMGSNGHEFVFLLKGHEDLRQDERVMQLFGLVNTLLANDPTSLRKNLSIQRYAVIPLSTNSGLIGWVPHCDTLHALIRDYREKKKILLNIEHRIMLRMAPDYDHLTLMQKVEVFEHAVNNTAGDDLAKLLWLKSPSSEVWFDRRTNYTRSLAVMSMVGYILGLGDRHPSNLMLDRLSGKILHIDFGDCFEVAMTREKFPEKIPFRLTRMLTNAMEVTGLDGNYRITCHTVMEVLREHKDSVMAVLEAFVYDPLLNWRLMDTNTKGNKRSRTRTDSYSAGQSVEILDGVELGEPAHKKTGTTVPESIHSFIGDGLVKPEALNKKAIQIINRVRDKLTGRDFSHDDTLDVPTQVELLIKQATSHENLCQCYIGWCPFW
T1 sequence (P42336 with tags, fused parts or gaps limits assumed): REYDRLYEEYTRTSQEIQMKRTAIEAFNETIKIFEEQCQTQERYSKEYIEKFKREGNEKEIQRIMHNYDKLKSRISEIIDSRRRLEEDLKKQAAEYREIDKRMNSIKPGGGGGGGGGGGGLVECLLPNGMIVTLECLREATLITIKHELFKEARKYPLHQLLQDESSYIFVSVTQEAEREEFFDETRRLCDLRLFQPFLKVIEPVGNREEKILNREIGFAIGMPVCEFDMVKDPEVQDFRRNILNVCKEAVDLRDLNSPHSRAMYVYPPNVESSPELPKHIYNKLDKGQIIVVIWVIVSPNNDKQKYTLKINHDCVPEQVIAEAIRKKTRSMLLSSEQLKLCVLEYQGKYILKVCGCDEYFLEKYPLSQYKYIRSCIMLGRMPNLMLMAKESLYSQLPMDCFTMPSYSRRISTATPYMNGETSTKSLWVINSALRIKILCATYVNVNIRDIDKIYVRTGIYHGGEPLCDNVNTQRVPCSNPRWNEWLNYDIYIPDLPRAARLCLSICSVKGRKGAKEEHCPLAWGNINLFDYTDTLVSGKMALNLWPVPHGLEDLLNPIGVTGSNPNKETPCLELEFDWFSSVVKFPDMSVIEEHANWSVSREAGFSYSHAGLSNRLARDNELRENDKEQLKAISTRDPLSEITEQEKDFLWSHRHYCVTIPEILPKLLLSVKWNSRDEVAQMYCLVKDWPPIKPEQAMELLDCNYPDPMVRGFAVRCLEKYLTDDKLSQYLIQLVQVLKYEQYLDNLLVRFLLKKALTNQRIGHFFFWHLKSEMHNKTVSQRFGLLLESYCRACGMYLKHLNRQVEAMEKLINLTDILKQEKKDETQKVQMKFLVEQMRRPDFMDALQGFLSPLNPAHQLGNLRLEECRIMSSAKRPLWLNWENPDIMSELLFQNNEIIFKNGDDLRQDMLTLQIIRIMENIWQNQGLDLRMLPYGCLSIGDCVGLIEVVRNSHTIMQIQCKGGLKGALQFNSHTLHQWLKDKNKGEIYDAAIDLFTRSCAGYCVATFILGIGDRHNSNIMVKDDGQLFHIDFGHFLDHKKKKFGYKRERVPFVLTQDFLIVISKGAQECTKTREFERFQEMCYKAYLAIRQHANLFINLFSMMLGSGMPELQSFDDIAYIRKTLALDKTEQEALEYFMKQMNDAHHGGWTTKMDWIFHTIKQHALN
T2 sequence (O00329 with tags, fused parts or gaps limits assumed): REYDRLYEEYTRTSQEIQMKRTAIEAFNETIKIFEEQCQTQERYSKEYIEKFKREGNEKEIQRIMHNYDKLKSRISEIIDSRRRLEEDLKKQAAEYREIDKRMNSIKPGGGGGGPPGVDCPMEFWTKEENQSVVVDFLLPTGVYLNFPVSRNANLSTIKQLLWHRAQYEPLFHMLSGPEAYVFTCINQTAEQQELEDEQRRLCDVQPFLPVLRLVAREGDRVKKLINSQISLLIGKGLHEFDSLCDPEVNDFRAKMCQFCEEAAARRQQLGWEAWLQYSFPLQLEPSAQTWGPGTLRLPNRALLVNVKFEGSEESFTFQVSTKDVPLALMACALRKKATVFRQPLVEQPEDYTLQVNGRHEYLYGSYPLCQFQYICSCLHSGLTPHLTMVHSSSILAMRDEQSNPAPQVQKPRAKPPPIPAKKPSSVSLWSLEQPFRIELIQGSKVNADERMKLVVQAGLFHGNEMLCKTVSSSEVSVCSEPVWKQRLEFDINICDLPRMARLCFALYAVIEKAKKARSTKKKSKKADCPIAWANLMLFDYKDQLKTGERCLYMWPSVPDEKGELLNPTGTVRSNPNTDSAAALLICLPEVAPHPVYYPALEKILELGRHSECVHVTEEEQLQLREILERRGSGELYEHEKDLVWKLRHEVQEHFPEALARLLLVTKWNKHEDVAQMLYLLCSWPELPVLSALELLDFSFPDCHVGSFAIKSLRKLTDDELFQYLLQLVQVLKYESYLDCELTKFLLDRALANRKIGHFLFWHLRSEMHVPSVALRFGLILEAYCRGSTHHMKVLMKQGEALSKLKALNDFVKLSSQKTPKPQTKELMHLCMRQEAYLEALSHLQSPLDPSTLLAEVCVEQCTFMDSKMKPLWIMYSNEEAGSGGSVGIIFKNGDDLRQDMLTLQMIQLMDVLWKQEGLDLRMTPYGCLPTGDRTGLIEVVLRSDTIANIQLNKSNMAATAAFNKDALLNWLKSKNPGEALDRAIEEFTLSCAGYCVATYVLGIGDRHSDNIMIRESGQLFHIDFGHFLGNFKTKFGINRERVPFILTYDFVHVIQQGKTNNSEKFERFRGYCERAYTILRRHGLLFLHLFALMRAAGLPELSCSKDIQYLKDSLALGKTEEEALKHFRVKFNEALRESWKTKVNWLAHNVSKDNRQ

As usually defined, the solubility is the dissolved amount per volume that the medium holds. As a reminder, the IC50 is the midpoint of a concentration-inhibition curve. `Cc1nn(CC(=O)N(C)C)c(C)c1-n1c(=O)n(C)c2cnc3ccc(-c4ccccc4)cc3c21` [Example 37.4, 2-[3,5-Dimethyl-4-(3-methyl-2-oxo-8-phenyl-2,3-dihydro-imidazo[4,5-c]quinolin-1-yl)-pyrazol-1-yl]-N,N-dimethyl-acetamide]: the solubility in the data set “Solubility at pH 6.8” (setting [5]) was 37 µg/mL (≈ 81.4 µM). The IC50 at PI3K alpha amounted to 0.266 µM; in data set [1], 0.844 µM.

On to `COCCn1nc(C)c(-n2c(=O)n(C)c3cnc4ccc(-c5ccc(-n6cccn6)cc5)cc4c32)c1C` [Example 51.5], for which, in the data set “Solubility at pH 6.8” (setting [5]), the solubility turned out to be 14 µg/mL (≈ 28.4 µM). For the same molecule, the IC50 was determined as 0.11 µM at PI3K alpha; 0.362 µM on PI3K delta; 0.017 µM in data set [2]; 0.516 µM in data set [3]; 0.025 µM in data set [1].

As to `CCOc1ccc(-c2ccc3ncc4[nH]c(=O)n(-c5cn(CC(=O)N6CCN(C)CC6)nc5C)c4c3c2)cn1` [Example 133, 8-(6-Ethoxy-pyridin-3-yl)-1-{3-methyl-1-[2-(4-methyl-piperazin-1-yl)-2-oxo-ethyl]-1H-pyrazol-4-yl}-1,3-dihydro-imidazo[4,5-c]quinolin-2-one], the solubility in the data set “Solubility at pH 6.8” (setting [5]) was 72 µg/mL (≈ 137 µM). Besides, the IC50 on PI3K alpha worked out at 0.938 µM; at PI3K delta it was 0.932 µM; at mTOR it was 0.013 µM; in data set [1], 0.508 µM.

As for `Cc1nn(C)cc1-n1c(=O)n(C)c2cnc3ccc(-c4cnc(N5CCCC5)nc4)cc3c21` [Example 140.2, 1-(1,3-Dimethyl-1H-pyrazol-4-yl)-3-methyl-8-(2-pyrrolidin-1-yl-pyrimidin-5-yl)-1,3-dihydro-imidazo[4,5-c]quinolin-2-one], the solubility in “Solubility at pH 6.8” (pH 6.8) is 2 µg/mL (≈ 4.54 µM). For the same molecule, the IC50 in data set [2] was determined as 0.029 µM; in data set [4] it was 0.036 µM; in data set [3], 0.062 µM; in data set [1], 0.006 µM.

As to `COCc1cc(-c2ccc3ncc4c(c3c2)n(-c2cn(C)nc2Cl)c(=O)n4C)cnc1N` [Example 168.3, 8-(6-Amino-5-methoxymethyl-pyridin-3-yl)-1-(3-chloro-1-methyl-1H pyrazol-4-yl)-3-methyl-1,3-dihydro-imidazo[4,5-c]quinolin-2-one], the solubility in “Solubility at pH 6.8” (setting [5]) was determined as 14 µg/mL (≈ 31.1 µM). In addition, the IC50 on mTOR was < 0.003 µM; in data set [2], 0.01 µM; in data set [4], 0.006 µM; in data set [3], 0.007 µM; in data set [1] it was < 0.0005 µM.

As to `CCc1ncc(-c2ccc3ncc4c(c3c2)n(-c2cn(C)nc2C)c(=O)n4C)cc1OC(C)C` [Example 186, 1-(1,3-Dimethyl-1H-pyrazol-4-yl)-8-(6-ethyl-5-isopropoxy-pyridin-3-yl)-3-methyl-1,3-dihydro-imidazo[4,5-c]quinolin-2-one], the solubility in “Solubility at pH 6.8” (setting [5]) amounted to 8 µg/mL (≈ 17.5 µM). Besides, the half-maximal inhibitory concentration (IC50) is 0.056 µM on mTOR; < 0.005 µM in data set [2]; 0.034 µM in data set [4]; 0.027 µM in data set [3]; 0.00102 µM in data set [1].

`Cn1cc(-n2c(=O)n(C)c3cnc4ccc(-c5cncc(C(C)(C)O)c5)cc4c32)c(Cl)n1` [Example 215.3, 1-(3-Chloro-1-methyl-1H-pyrazol-4-yl)-8-[5-(1-hydroxy-1-methyl-ethyl)-pyridin-3-yl]-3-methyl-1,3-dihydroimidazo[4,5-c]quinolin-2-one]: the solubility in the data set “Solubility at pH 6.8” (setting [5]) came out at 21 µg/mL (≈ 46.8 µM). Besides, the IC50 on mTOR is 0.007 µM; in data set [2] it was 0.013 µM; in data set [4] it was 0.016 µM; in data set [3], 0.022 µM; in data set [1], 0.001 µM.

Regarding `CCNC(=O)c1cc(-c2ccc3ncc4c(c3c2)n(-c2c(C)nn(C)c2C)c(=O)n4C)cnc1NC` [Example 242.2, N-Ethyl-2-methylamino-5-[3-methyl-2-oxo-1-(1,3,5-trimethyl-1H-pyrazol-4-yl)-2,3-dihydro-1H-imidazo[4,5-c]quinolin-8-yl]-nicotinamide], the solubility in “Solubility at pH 6.8” (setting [5]) is > 485 µg/mL. Besides, the IC50 came out at 0.371 µM in data set [2], 0.995 µM in data set [4], 0.895 µM in data set [3] and 0.088 µM in data set [1].
